Experiments:
Assay type in all cases: functional, cell-based
[1] = target: T1, Solute carrier family 15 member 2 (Rattus norvegicus, UniProt Q63424); test: TP_TRANSPORTER: inhibition of Gly-Sar uptake in PEPT2-expressing LLC-PK1 cells
T1 sequence (Q63424 whole entry): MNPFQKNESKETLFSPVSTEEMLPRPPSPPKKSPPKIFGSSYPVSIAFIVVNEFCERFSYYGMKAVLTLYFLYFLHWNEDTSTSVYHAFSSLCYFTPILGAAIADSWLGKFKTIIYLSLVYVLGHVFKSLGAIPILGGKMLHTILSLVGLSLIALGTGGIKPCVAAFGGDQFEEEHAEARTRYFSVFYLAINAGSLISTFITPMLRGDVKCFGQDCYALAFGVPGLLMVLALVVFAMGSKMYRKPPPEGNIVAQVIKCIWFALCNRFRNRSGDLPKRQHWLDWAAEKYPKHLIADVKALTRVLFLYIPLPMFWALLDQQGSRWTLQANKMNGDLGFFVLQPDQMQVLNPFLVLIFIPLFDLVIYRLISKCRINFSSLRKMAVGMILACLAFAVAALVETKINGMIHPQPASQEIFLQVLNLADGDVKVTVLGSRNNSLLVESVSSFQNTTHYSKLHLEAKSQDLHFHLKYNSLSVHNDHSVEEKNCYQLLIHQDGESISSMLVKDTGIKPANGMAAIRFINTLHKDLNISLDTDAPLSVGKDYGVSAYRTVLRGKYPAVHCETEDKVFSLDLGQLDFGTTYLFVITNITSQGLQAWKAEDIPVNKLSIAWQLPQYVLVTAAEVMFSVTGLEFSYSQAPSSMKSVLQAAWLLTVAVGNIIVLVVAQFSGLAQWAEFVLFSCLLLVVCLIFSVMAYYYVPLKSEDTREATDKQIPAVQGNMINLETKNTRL

[2] = target: T2, Solute carrier family 15 member 1 (Rattus norvegicus, UniProt P51574); test: TP_TRANSPORTER: inhibition of Gly-Sar uptake in PEPT1-expressing LLC-PK1 cells
T2 sequence (P51574 whole entry): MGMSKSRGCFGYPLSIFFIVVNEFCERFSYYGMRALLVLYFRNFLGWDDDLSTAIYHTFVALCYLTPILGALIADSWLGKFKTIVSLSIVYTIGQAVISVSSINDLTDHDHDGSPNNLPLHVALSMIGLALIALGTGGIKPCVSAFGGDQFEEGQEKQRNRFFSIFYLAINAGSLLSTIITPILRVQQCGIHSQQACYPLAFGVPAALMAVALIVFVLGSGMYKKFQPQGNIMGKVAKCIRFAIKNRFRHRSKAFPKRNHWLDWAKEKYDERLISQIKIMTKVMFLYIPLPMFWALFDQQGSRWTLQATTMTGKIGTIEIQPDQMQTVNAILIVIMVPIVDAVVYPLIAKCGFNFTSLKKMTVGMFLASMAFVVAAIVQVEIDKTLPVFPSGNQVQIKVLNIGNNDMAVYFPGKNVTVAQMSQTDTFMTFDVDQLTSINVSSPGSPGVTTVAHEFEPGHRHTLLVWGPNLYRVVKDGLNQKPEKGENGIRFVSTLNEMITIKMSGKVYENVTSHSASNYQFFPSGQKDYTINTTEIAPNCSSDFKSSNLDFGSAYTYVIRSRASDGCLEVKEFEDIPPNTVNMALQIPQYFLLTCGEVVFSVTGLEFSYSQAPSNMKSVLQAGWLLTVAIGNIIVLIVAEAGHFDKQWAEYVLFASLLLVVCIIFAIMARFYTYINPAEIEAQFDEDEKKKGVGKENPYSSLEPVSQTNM

[3] = substrate: CN(CC(=O)O)C(=O)CN; test: TP_TRANSPORTER: uptake in PEPT2-expressing LLC-PK1 cells
[4] = substrate: CN(CC(=O)O)C(=O)CN; test: TP_TRANSPORTER: uptake in PEPT1-expressing LLC-PK1 cells

Molecule | Ki [1] [µM] | Ki [2] [µM] | Km [3] [µM] | Km [4] [µM]
CC1(C)S[C@@H]2[C@H](NC(=O)[C@H](N)c3ccc(O)cc3)C(=O)N2[C@H]1C(=O)O [AMOXICILLIN] | 179 | 13000 | – | –
CC1(C)S[C@@H]2[C@H](NC(=O)[C@H](N)c3ccccc3)C(=O)N2[C@H]1C(=O)O [AMPICILLIN] | 669 | 47800 | – | –
CC1=C(C(=O)O)N2C(=O)[C@@H](NC(=O)[C@H](N)c3ccc(O)cc3)[C@H]2SC1 [CEFADROXIL] | 3 | 2170 | – | –
C=CC1=C(C(=O)O)N2C(=O)[C@@H](NC(=O)/C(=N\O)c3csc(N)n3)[C@H]2SC1 [CEFDINIR] | 20100 | 11900 | – | –
C=CC1=C(C(=O)O)N2C(=O)[C@@H](NC(=O)/C(=N\OCC(=O)O)c3csc(N)n3)[C@H]2SC1 [CEFIXIME] | 11900 | 6920 | – | –
Nc1nc(/C(=C/CC(=O)O)C(=O)N[C@@H]2C(=O)N3C(C(=O)O)=CCS[C@H]23)cs1 [CEFTIBUTEN] | 1340 | 597 | – | –
CC1=C(C(=O)O)N2C(=O)[C@@H](NC(=O)[C@H](N)c3ccccc3)[C@H]2SC1 [CEPHALEXIN ANHYDROUS] | 49 | 4500 | – | –
CC1=C(C(=O)O)N2C(=O)[C@@H](NC(=O)[C@H](N)C3=CCC=CC3)[C@H]2SC1 [CEPHRADINE] | 47 | 8540 | – | –
CC1(C)S[C@@H]2[C@H](NC(=O)C3(N)CCCCC3)C(=O)N2[C@H]1C(=O)O [CYCLACILLIN] | 27 | 168 | – | –
Solute carrier family 15 member 2 (Rattus norvegicus), Q63424 (protein) MNPFQKNESKETLFSPVSTEEMLPRPPSPPKKSPPKIFGSSYPVSIAFIVVNEFCERFSYYGMKAVLTLYFLYFLHWNEDTSTSVYHAFSSLCYFTPILGAAIADSWLGKFKTIIYLSLVYVLGHVFKSLGAIPILGGKMLHTILSLVGLSLIALGTGGIKPCVAAFGGDQFEEEHAEARTRYFSVFYLAINAGSLISTFITPMLRGDVKCFGQDCYALAFGVPGLLMVLALVVFAMGSKMYRKPPPEGNIVAQVIKCIWFALCNRFRNRSGDLPKRQHWLDWAAEKYPKHLIADVKALTRVLFLYIPLPMFWALLDQQGSRWTLQANKMNGDLGFFVLQPDQMQVLNPFLVLIFIPLFDLVIYRLISKCRINFSSLRKMAVGMILACLAFAVAALVETKINGMIHPQPASQEIFLQVLNLADGDVKVTVLGSRNNSLLVESVSSFQNTTHYSKLHLEAKSQDLHFHLKYNSLSVHNDHSVEEKNCYQLLIHQDGESISSMLVKDTGIKPANGMAAIRFINTLHKDLNISLDTDAPLSVGKDYGVSAYRTVLRGKYPAVHCETEDKVFSLDLGQLDFGTTYLFVITNITSQGLQAWKAEDIPVNKLSIAWQLPQYVLVTAAEVMFSVTGLEFSYSQAPSSMKSVLQAAWLLTVAVGNIIVLVVAQFSGLAQWAEFVLFSCLLLVVCLIFSVMAYYYVPLKSEDTREATDKQIPAVQGNMINLETKNTRL | – | – | 110 | –
Solute carrier family 15 member 1 (Rattus norvegicus), P51574 (protein) MGMSKSRGCFGYPLSIFFIVVNEFCERFSYYGMRALLVLYFRNFLGWDDDLSTAIYHTFVALCYLTPILGALIADSWLGKFKTIVSLSIVYTIGQAVISVSSINDLTDHDHDGSPNNLPLHVALSMIGLALIALGTGGIKPCVSAFGGDQFEEGQEKQRNRFFSIFYLAINAGSLLSTIITPILRVQQCGIHSQQACYPLAFGVPAALMAVALIVFVLGSGMYKKFQPQGNIMGKVAKCIRFAIKNRFRHRSKAFPKRNHWLDWAKEKYDERLISQIKIMTKVMFLYIPLPMFWALFDQQGSRWTLQATTMTGKIGTIEIQPDQMQTVNAILIVIMVPIVDAVVYPLIAKCGFNFTSLKKMTVGMFLASMAFVVAAIVQVEIDKTLPVFPSGNQVQIKVLNIGNNDMAVYFPGKNVTVAQMSQTDTFMTFDVDQLTSINVSSPGSPGVTTVAHEFEPGHRHTLLVWGPNLYRVVKDGLNQKPEKGENGIRFVSTLNEMITIKMSGKVYENVTSHSASNYQFFPSGQKDYTINTTEIAPNCSSDFKSSNLDFGSAYTYVIRSRASDGCLEVKEFEDIPPNTVNMALQIPQYFLLTCGEVVFSVTGLEFSYSQAPSNMKSVLQAGWLLTVAIGNIIVLIVAEAGHFDKQWAEYVLFASLLLVVCIIFAIMARFYTYINPAEIEAQFDEDEKKKGVGKENPYSSLEPVSQTNM | – | – | – | 1100

From ChEMBL document CHEMBL2074442, “Recognition of beta-lactam antibiotics by rat peptide transporters, PEPT1 and PEPT2, in LLC-PK1 cells” (Am J Physiol, 1997)
